Here are results for 3 compounds from patent US8481459B2, “Chemical inhibitors of ethylene biosynthesis” (Academia Sinica, priority 2010, dated 2013).

The target of this test is T1, recombinant Arabidopsis ACS5 (Arabidopsis thaliana, UniProt Q37001).
T1 construct: The full-length cDNA of Arabidopsis ACS5 (At5g65800) was cloned to pETDuet (Novagen); 6His (N); made in house; host or cells: E. coli BL21-CodonPlus (Stratagene)
T1 sequence (Q37001 1-470): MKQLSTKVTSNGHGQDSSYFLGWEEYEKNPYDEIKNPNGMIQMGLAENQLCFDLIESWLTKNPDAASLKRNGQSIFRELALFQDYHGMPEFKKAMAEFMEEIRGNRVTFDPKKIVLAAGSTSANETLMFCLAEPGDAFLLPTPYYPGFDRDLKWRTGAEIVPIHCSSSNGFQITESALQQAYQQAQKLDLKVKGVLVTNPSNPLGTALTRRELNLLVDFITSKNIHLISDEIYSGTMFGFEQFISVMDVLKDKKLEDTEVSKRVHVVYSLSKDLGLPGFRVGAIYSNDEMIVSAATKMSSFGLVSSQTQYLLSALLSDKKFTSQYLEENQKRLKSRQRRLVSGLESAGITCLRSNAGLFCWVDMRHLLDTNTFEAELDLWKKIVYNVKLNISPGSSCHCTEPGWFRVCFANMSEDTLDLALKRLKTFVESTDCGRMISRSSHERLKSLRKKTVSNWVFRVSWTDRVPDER
Kind of test: In vitro ACS activity assay. It is filed as biochemical. Particulars: purified recombinant ACS5, 30 min at 25° C.; read-out: estimated half maximal inhibitory concentration (IC50), ACS5 enzyme activity. As for the experimental part:
The full-length cDNA of Arabidopsis ACS5 (At5g65800) was cloned to pETDuet (Novagen) to generate pETDuet-6His-ACS5 for expression in E. coli (BL21-CodonPlus, Stratagene) and subsequent purification of the recombinant ACS5 protein. Protein expression was induced at OD600 0.6 by adding 0.4 mM IPTG, and cells were incubated at 16° C. for 18 h. Cells were harvested by centrifugation at 6000×g for 10 min at 4° C. The cell pellet was washed and suspended in 50 mL phosphate buffer (300 mM NaCl, 20 mM phosphate buffer, pH 7.4) containing 20 mM imidazole. Cell lysis was achieved by a continuous high-pressure cell disrupter (TS 2.2 KW, Constant System) with 30 KPsi at 4° C. After washing the cell disrupter twice with 50 ml phosphate buffer containing 20 mM imidazole, the final 150 ml suspension was centrifuged at 10000×g for 30 min at 4° C. The supernatant was applied to a 5-mL HisTrap FF column in an AKTAprime system (GE Healthcare) and was subsequently washed stepwise with 100 mL buffer A (1 mM EDTA, 5 mM DTT, 250 mM HEPES buffer, pH 8.0) containing 20 mM imidazole, then 100 mL buffer A containing 100 mM imidazole. The bound protein was eluted by a 0.1-1.0 M gradient of imidazole in 25 mL buffer A and stored at −80° C. until further analysis.
ACS activity assay was performed as described (Lizada, et al. (1979) Anal Biochem 100, 140-145; Yamagami, et al. (2003) J Biol Chem 278, 49102-49112), with minor modifications. […] Ethylene level was measured by use of a gas chromatograph (HP 6890, Hewlett-Packard) equipped with a capillary column (19095P-U04, Agilent Technologies) and an autosampler (HP 7694, Agilent Technologies). […]
To further test this possibility, recombinant Arabidopsis ACS5 protein from bacterial cells was purified for an in vitro enzyme activity assay. […] The quantity of ACC converted to ethylene by recombinant ACS5 is the readout of ACS activity. […]

As for `COc1ccc(C2CC(=O)c3cnc(Nc4ccccc4)nc3C2)cc1` (stereo not drawn) [Compound 7303], the IC50 is 0.5 µM. Then `Cc1ccc(C2CC(=O)c3cnc(NC4CCCC4)nc3C2)cc1` (stereo not drawn) [Compound 9370], with 1.4 µM; and `CC1(C)CC(=O)c2cnc(NC3CCCC3)nc2C1` [Compound 9393], with 3.2 µM.
